Measurements: US10508120B2, “TYK2 inhibitors and uses thereof” (Nimbus Lakshmi, Inc., priority 2017, dated 2019)

Assays:
[1] = target: JAK2/JAK2 homdimeric complex (Homo sapiens (Human), UniProt O60674); assay: GM-CSF Induced pSTAT5 in Human PBMC; assay type: cell-based; conditions: GM-CSF 5 ng/mL for 20 minutes, pSTAT5 by MSD, read-out: PBMC_GMCSF_pSTAT5 IC50
[2] = target: Tyk2 kinase domain (DH1) (Homo sapiens (Human), UniProt P29597); assay: Tyk2 Radioactive Kinase Assay; assay type: biochemical; conditions: 10 μM compound; 10 μM ATP
Chain of Tyk2 kinase domain (DH1) (P29597 897-1176): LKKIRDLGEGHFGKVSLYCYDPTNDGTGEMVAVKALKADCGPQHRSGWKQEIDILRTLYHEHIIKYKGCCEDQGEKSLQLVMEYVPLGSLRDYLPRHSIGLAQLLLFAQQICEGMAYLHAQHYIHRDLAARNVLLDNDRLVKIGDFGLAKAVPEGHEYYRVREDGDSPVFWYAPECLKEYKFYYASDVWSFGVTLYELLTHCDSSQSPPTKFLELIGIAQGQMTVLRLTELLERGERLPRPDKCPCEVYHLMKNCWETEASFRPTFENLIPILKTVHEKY
In short: (§1)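 Compounds were tested at a single concentration of 10 μM in a radiometric kinase format against each isolated kinase domain. Activity is reported as percent inhibition at that concentration.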

[3] = target: JAK2 kinase domain (JH1) (Homo sapiens (Human), UniProt O60674); assay: JAK2 Radioactive Kinase Assay; assay type: biochemical; conditions: 10 μM compound; 10 μM ATP
Chain of JAK2 kinase domain (JH1) (O60674 849-1124): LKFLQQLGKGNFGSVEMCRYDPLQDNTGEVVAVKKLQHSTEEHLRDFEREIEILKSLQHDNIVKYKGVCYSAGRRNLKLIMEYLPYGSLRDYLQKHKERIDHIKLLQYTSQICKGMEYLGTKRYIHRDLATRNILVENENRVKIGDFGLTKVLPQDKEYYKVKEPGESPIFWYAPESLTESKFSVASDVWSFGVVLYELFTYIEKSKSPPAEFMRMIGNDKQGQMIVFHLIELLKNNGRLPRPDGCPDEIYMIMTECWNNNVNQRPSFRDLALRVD
In short: as §1

[4] = target: Tyk2/JAK2 (heterodimeric complex) (Homo sapiens (Human), UniProt P29597); assay: IL-12 Induced pSTAT4 in Human PBMC; assay type: cell-based; conditions: 1.7 ng/mL IL-12
Chain of Tyk2/JAK2 (heterodimeric complex) (P29597 whole entry, other chains not shown): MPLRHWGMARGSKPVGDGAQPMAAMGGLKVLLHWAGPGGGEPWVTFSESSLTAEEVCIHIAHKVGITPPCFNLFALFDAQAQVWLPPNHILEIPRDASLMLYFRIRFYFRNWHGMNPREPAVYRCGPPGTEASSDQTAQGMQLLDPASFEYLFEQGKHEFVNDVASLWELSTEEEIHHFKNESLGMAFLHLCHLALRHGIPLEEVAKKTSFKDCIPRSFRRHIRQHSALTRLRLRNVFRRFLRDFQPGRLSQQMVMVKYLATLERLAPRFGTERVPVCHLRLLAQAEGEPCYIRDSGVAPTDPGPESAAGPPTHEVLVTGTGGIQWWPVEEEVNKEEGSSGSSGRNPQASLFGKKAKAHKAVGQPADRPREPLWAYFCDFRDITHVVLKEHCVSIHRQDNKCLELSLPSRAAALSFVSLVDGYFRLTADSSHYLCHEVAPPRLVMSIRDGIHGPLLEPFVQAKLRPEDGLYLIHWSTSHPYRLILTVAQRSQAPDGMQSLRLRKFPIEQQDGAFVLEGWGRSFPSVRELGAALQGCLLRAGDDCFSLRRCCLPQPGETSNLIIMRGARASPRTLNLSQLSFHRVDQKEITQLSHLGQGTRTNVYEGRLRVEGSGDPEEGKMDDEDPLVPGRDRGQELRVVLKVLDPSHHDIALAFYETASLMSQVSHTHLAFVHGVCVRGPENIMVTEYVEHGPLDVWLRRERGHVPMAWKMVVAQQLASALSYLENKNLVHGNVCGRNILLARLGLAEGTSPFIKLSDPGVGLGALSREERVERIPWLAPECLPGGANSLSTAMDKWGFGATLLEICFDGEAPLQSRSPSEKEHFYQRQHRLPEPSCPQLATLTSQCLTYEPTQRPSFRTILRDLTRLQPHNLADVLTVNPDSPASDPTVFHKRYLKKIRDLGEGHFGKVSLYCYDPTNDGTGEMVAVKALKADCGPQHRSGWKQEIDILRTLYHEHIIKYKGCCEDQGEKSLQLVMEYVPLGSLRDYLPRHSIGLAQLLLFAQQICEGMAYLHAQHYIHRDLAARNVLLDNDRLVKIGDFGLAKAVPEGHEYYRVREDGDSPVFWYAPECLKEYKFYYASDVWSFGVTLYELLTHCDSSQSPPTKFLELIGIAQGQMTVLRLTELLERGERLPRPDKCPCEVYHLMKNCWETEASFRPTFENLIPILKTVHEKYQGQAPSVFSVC
Excerpt: The IL-12 Induced pSTAT4 assay evaluates the inhibition of IL-12 induced STAT4 phophorylation mediated by Tyk2/JAK2 (heterodimeric complex).

[5] = target: human TYK2 (JH2domain-pseudokinase) (Homo sapiens (Human), UniProt P29597); assay: TYK2 JH2 Domain Binding Assay (KINOMEscan)
Chain of human TYK2 (JH2domain-pseudokinase) (P29597 556-888): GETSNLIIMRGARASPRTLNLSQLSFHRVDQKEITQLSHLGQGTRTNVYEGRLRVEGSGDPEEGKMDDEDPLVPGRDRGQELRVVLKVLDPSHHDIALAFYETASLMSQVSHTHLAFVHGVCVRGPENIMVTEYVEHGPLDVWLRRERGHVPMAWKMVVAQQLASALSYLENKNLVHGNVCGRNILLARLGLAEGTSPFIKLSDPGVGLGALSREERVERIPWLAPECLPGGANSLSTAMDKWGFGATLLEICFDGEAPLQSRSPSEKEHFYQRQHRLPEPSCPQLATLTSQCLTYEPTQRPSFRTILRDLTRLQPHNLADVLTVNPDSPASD
In short: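 Competition binding of a DNA-tagged fusion of human TYK2 JH2 pseudokinase (G556–D888) with NFkB DNA-binding domain, from HEK293 extracts (<0.1 nM final), against immobilised ligand beads; 1 h shaking at room temperature, 0.9% DMSO. Bound kinase quantified by qPCR.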

Chain of JAK2/JAK2 homdimeric complex (O60674 whole entry, the tested form may be a part): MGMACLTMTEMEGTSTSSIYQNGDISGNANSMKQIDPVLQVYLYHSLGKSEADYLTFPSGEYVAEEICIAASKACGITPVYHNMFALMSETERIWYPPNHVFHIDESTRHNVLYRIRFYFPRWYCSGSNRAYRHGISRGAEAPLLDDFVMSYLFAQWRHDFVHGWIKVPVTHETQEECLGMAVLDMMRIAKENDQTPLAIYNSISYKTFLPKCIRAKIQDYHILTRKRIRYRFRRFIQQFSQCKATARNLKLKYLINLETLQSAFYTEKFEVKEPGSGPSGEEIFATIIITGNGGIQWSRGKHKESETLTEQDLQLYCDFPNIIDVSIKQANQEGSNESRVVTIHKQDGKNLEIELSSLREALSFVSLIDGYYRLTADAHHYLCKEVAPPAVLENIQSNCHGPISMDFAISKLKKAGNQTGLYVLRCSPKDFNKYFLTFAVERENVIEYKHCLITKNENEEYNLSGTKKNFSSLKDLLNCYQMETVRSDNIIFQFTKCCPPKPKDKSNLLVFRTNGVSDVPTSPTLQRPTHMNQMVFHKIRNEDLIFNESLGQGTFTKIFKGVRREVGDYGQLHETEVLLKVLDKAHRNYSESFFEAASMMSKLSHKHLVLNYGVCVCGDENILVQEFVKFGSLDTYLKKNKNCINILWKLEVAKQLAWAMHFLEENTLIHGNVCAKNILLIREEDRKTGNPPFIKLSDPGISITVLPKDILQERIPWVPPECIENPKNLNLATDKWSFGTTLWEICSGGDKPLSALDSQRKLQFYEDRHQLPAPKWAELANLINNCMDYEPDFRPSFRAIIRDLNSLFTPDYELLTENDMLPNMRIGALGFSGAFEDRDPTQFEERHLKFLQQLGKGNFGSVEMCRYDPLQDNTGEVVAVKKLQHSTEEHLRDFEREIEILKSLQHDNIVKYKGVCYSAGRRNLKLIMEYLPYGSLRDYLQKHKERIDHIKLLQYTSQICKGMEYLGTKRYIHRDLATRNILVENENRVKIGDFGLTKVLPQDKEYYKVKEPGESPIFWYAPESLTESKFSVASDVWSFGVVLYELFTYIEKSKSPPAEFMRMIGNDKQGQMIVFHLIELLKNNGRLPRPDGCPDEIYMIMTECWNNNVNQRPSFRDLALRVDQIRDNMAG
Chain of JAK2/JAK2 homdimeric complex (P32927 17-897 partner): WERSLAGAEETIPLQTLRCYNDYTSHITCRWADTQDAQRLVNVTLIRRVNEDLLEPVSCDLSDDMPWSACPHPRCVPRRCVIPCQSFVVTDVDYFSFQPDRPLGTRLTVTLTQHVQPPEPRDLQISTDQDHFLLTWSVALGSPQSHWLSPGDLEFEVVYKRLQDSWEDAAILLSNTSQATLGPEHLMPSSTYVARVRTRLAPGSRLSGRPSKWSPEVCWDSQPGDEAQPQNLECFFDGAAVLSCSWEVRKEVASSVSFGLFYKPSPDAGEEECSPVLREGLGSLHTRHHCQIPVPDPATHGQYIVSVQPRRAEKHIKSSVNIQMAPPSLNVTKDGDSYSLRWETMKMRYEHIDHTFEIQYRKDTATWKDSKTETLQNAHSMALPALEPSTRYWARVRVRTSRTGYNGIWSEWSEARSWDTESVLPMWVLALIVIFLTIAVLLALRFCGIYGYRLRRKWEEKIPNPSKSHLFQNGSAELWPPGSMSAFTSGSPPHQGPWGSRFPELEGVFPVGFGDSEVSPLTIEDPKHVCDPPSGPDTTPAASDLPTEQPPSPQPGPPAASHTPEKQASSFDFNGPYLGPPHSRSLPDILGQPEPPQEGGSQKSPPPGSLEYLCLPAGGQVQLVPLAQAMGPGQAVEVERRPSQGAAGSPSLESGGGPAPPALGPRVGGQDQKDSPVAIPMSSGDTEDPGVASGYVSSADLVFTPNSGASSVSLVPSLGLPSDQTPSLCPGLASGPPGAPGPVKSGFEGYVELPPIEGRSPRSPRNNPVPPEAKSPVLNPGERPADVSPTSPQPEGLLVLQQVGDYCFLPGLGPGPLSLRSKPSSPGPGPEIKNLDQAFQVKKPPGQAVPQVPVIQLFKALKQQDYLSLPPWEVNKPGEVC

Structure (SMILES) | IC50 [1] | Tyk2 JH1% Inhibition @ 10 μM [2] | JAK2 JH1% Inhibition @ 10 μM [3] | IC50 [4] | Kd [5]
CNc1cc(Nc2cccn(-c3cccc(F)c3)c2=O)nc2c(C(=O)N[C@@H]3CC[C@H]3O)cnn12 [I-946] | > 50000 nM | A (percent inhibition at 10 μM lower than 50) | A (percent inhibition at 10 μM lower than 50) | < 100 nM | 
CNc1cc(-c2cn(CCN3CCN(C)CC3)c3ncccc23)nc2c(C(=O)N[C@H]3CC[C@@H]3OC)cnn12 [I-952] | > 2500 nM | A (percent inhibition at 10 μM lower than 50) | A (percent inhibition at 10 μM lower than 50) | 100 to 500 nM | 
CNC(=O)c1occc1Nc1cc(NC)n2ncc(C(=O)N[C@H]3CC[C@@H]3OC)c2n1 [I-1323] |  |  |  | < 100 nM | 1 to 10 nM
CNc1cc(Nc2cc3cccnc3n2C2CC2)nc2c(C(=O)N[C@H]3CC[C@@H]3OC)cnn12 [I-1325] |  |  |  | < 100 nM | < 0.2 nM
CNc1cc(-c2cn(C3CCOCC3)c3ncccc23)nc2c(C(=O)N[C@@H]3CC[C@H]3OC)cnn12 [I-1328] |  |  |  | < 100 nM | 0.2 to 1 nM
CNc1cc(Nc2cccn([C@@H]3CCC[C@@H](OC)C3)c2=O)nc2c(C(=O)N[C@H]3CC[C@@H]3OC)cnn12 [I-1331] |  |  |  | < 100 nM | 1 to 10 nM
CNc1cc(Nc2cccn([C@@H]3CCN(CCF)C3)c2=O)nc2c(C(=O)N[C@@H]3CC[C@H]3OC)cnn12 [I-1333] |  |  |  | < 100 nM | 1 to 10 nM
CNc1cc(Nc2cccn([C@@H]3CC[C@@H]3O)c2=O)nc2c(C(=O)N[C@@H]3CC[C@H]3OC)cnn12 [I-1350] |  |  |  | < 100 nM | < 0.2 nM
CNc1cc(-c2cn([C@H]3CCN(CCF)C3)c3ncccc23)nc2c(C(=O)N[C@@H]3C[C@@H]3F)cnn12 [I-1362] |  |  |  | < 100 nM | 0.2 to 1 nM
CNc1cc(-c2cn([C@@H]3CCCOC3)c3ncccc23)nc2c(C(=O)N[C@H]3CC[C@@H]3OC)cnn12 [I-1364] |  |  |  | < 100 nM | 0.2 to 1 nM
CNc1cc(-c2cn([C@H]3CCCOC3)c3ncccc23)nc2c(C(=O)N[C@H]3CC[C@@H]3OC)cnn12 [I-1365] |  |  |  | < 100 nM | < 0.2 nM
CNc1cc(-c2cn([C@@H]3CCN(CCF)C3)c3ncccc23)nc2c(C(=O)N[C@@H]3C[C@@H]3F)cnn12 [I-1366] |  |  |  | < 100 nM | 1 to 10 nM
CNc1cc(Nc2cccn([C@H]3CCC[C@H](OC)C3)c2=O)nc2c(C(=O)N[C@@H]3CC[C@H]3OC)cnn12 [I-1374] |  |  |  | < 100 nM | 0.2 to 1 nM
CNc1cc(Nc2cccn([C@H]3CCN(CCF)C3)c2=O)nc2c(C(=O)N[C@H]3CC[C@@H]3OC)cnn12 [I-1381] |  |  |  | < 100 nM | 0.2 to 1 nM
CNc1cc(Nc2cccn([C@@H]3CCCN(CCF)C3)c2=O)nc2c(C(=O)N[C@H]3CC[C@@H]3OC)cnn12 [I-1382] |  |  |  | < 100 nM | < 0.2 nM
CNc1cc(Nc2cccn([C@H]3CC[C@@H]3O)c2=O)nc2c(C(=O)N[C@H]3CC[C@@H]3OC)cnn12 [I-1385] |  |  |  | < 100 nM | 0.2 to 1 nM
CNc1cc(-c2cn(C(C)C)c3ncc(F)cc23)nc2c(C(=O)N[C@H]3CC[C@H]3O)cnn12 [I-1387] |  |  |  | < 100 nM | 1 to 10 nM
CNc1cc(-c2cn(CCCO)c3ncccc23)nc2c(C(=O)N[C@H]3CC[C@@H]3OC)cnn12 [I-1388] |  |  |  | < 100 nM | 0.2 to 1 nM
CNc1cc(Nc2cccn(C3CC(F)(F)C3)c2=O)nc2c(C(=O)N[C@H]3CC[C@@H]3OC)cnn12 [I-1389] |  |  |  | < 100 nM | 0.2 to 1 nM
CNc1cc(Nc2cccn([C@H]3CCC[C@H](O)C3)c2=O)nc2c(C(=O)N[C@@H]3CC[C@H]3OC)cnn12 [I-1395] |  |  |  | < 100 nM | 0.2 to 1 nM
CNc1cc(Nc2cccn([C@@H]3CC[C@@H]3O)c2=O)nc2c(C(=O)N[C@H]3CC[C@@H]3OC)cnn12 [I-1411] |  |  |  | < 100 nM | 1 to 10 nM
